Patent publication US7449202B1, “Compositions and methods for prostate and kidney health and disorders, an herbal preparation” (Integrated Chinese Medicine Holdings, Ltd., priority 2003, dated 2008)

Assay: case report: enlarged prostate with frequent urination
Type: in vivo, human
Details: person, prescribed for enlarged prostate
Description: The 9-herb composition and Incontinence. Person diagnosed with having an enlarged prostate suffered from frequent-urination problems including increased daily frequency and reduced volume. They had the urge to urinate every two hours and the amount was only a few drops. Their symptoms were attributed to old age. […] After a period of time on this regimen, their urinary frequency decreased. The person reports that they only go to the bathroom every four hours instead of every two hours during the day. They are able to urinate what they consider a normal amount of urine in a steady stream as opposed to the dribbling they experienced prior to taking the 9-herb composition. The biggest benefit they experienced, however, is sleeping through the night without having to get up and go to the bathroom. Because they are sleeping better, they have more energy throughout the day.

## CC(C)(C)NC(=O)[C@H]1CC[C@H]2[C@@H]3CC[C@H]4NC(=O)C=C[C@]4(C)[C@H]3CC[C@]12C [PROSCAR]
  urination problem: did not alleviate the urination problem
